Experiments:
Type in all cases: in vivo
[1] = tested on: Soybean seeds of the variety Merlin; assay: Soybean seed treatment: plant height, fresh and dry weight of stem and roots after 19 days (Example A); conditions: for dry weight roots, % of untreated control / dry weight stem, % of untreated control / fresh weight roots, % of untreated control / fresh weight stem, % of untreated control: untreated control given as 100
Protocol: (§1) Soybean seeds of the variety Merlin were treated with 1.2, 0.6 and 0.3 g of compound (A) per 100 kg seeds. Compound (A) was provided as an aqueous solution with a concentration of 1000 ppm compound (A). The treated seeds were seeded into soil/quartz in five replicates at the same day. Germination was observed four days later. Plant height, fresh and dry weight of stem and roots were determined after 19 days.

[2] = tested on: Soybean seeds of the variety Merlin; assay: Soybean seed treatment: root volume after 19 days (Example B); conditions: untreated control 0.82
Protocol: as §1, with “Root volume was” for “Plant height, fresh and dry weight of stem and roots were”

[3] = tested on: Soybean seeds of the variety Merlin; assay: Soybean seed treatment: comparative photographs of seedlings after 19 days (Example C)
Protocol: FIGS. 1A-1H. Soybean seeds of the variety Merlin were untreated FIG. 1A (top view) and FIG. 1B (side view), or treated 1.2 g/100 kg/seeds of Compound (A) in FIG. 1C (top view) and FIG. 1D (side view); or treated with 0.6 g/100 kg seeds of Compound (A) in FIG. 1E (Lop view) and FIG. 1F (side view); or treated with 0.3 g/100 kg seeds of compound (A) in FIG. 1G (top view) and FIG. 1H (side view). Seedlings were evaluated after 19 days. Soybean seeds of the variety Merlin were treated with 1.2, 0.6 and 0.3 g of compound (A) per 100 kg seeds. Compound (A) was provided as an aqueous solution with a concentration of 1000 ppm compound (A). The treated seeds were seeded into soil/quartz in five replicates at the same day. Germination was observed four days later. Comparative photographs were taken after 19 days.

[4] = tested on: Roses of the variety Kordana Mixkar; assay: Rose foliar application: number of flowers by visual inspection (Example D); conditions: for No Flowers, Average (A to E): average of five replicates, untreated controls 9.4 and 10.2; for No Flowers, A: replicate A; for No Flowers, A / No Flowers, B / No Flowers, C / No Flowers, D / No Flowers, E: assessed 2016-06-14; for No Flowers, B: replicate B; for No Flowers, C: replicate C; for No Flowers, D: replicate D; for No Flowers, E: replicate E
Protocol: FIGS. 2A-2H. Rose plants of the variety Kordana Mixkar were treated in five replicates. Untreated control is shown in FIG. 2A (side view) and FIG. 2B (top view). Treatment at 1 ppm is shown in FIG. 2C (side view) and FIG. 2D (top view). Treatment at 80 ppm is shown in FIG. 2E (side view) and FIG. 2F (top view). Treatment at 420 ppm is showing in FIG. 2G (side view) and FIG. 2H (top view). Rose plants were evaluated for quantity and fullness of flowers.
Roses of the variety Kordana Mixkar were cultivated in 2 litre pots in soil in the greenhouse at 23 degree Celsius and 80% humidity. Compound (A) and Clopyralid as a comparison were applied as a foliar application on 2016-05-25 at application rates according to the following table 3 Ammonium sulfate and methylated soybean oil were used as penetration enhancing agents.
Rose plants were treated in five replicates. The number of flowers was assessed by visual inspection on 2016-06-14.

[5] = seed treatment 0.3 g/100 kg seeds
[6] = seed treatment 0.6 g/100 kg seeds
[7] = seed treatment 1.2 g/100 kg seeds
[8] = 0.3 g/100 kg seeds, photographs after 19 days (FIGS. 1G, 1H)
[9] = 0.6 g/100 kg seeds, photographs after 19 days (FIGS. 1E, 1F)

## O=C(O)c1ncc(C(F)(F)F)cc1Cl [Compound (A), 3-chloro-5-(trifluoromethyl)pyridine-2-carboxylic acid]
[1]; [5]
  Fresh weight plant: 2.62 g
  Plant height [% of untreated control]: 111 % of untreated control
  dry weight roots, % of untreated control: 105%
  dry weight stem, % of untreated control: 114%
  fresh weight roots, % of untreated control: 106%
  fresh weight stem, % of untreated control: 103%
[1]; [6]
  Fresh weight plant: 2.53 g
  Plant height [% of untreated control]: 103 % of untreated control
  dry weight roots, % of untreated control: 108%
  dry weight stem, % of untreated control: 107%
  fresh weight roots, % of untreated control: 107%
  fresh weight stem, % of untreated control: 100%
[1]; [7]
  Fresh weight plant: 2.24 g
  Plant height [% of untreated control]: 87 % of untreated control
  dry weight roots, % of untreated control: 68%
  dry weight stem, % of untreated control: 77%
  fresh weight roots, % of untreated control: 69%
  fresh weight stem, % of untreated control: 88%
[2]; [5]
  Root volume [cm^3]: 0.83 cm^3
[2]; [6]
  Root volume [cm^3]: 0.96 cm^3
[2]; [7]
  Root volume [cm^3]: 0.50 cm^3
[3]; [8]
  biomass of leaves in comparison to the untreated control: increased biomass of leaves
  growth of the seedlings in comparison to the untreated control: higher growth of the seedlings
[3]; [9]
  biomass of leaves in comparison to the untreated control: increased biomass of leaves
  growth of the seedlings in comparison to the untreated control: higher growth of the seedlings
[4]; 1 ppm foliar
  No Flowers, Average (A to E): 9.6
  No Flowers, A: 8
  No Flowers, B: 7
  No Flowers, C: 11
  No Flowers, D: 10
  No Flowers, E: 12
[4]; 10 ppm foliar
  No Flowers, Average (A to E): 10.2
  No Flowers, A: 11
  No Flowers, B: 10
  No Flowers, C: 10
  No Flowers, D: 10
  No Flowers, E: 10
[4]; 20 ppm foliar
  No Flowers, Average (A to E): 10.6
  No Flowers, A: 11
  No Flowers, B: 10
  No Flowers, C: 12
  No Flowers, D: 10
  No Flowers, E: 10
[4]; 40 ppm foliar
  No Flowers, Average (A to E): 11.2
  No Flowers, A: 11
  No Flowers, B: 8
  No Flowers, C: 13
  No Flowers, D: 12
  No Flowers, E: 12
[4]; 80 ppm foliar
  No Flowers, Average (A to E): 11.4
  No Flowers, A: 12
  No Flowers, B: 13
  No Flowers, C: 11
  No Flowers, D: 11
  No Flowers, E: 10
[4]; 170 ppm foliar
  No Flowers, Average (A to E): 8.8
  No Flowers, A: 8
  No Flowers, B: 10
  No Flowers, C: 10
  No Flowers, D: 5
  No Flowers, E: 11
[4]; 250 ppm foliar
  No Flowers, Average (A to E): 5.4
  No Flowers, A: 3
  No Flowers, B: 9
  No Flowers, C: 3
  No Flowers, D: 4
  No Flowers, E: 8
[4]; 420 ppm foliar
  No Flowers, Average (A to E): 5
  No Flowers, A: 8
  No Flowers, B: 7
  No Flowers, C: 3
  No Flowers, D: 4
  No Flowers, E: 3
[4]; 850 ppm foliar
  No Flowers, Average (A to E): 5.2
  No Flowers, A: 2
  No Flowers, B: 3
  No Flowers, C: 10
  No Flowers, D: 5
  No Flowers, E: 6
[4]; foliar application, up to a concentration of 80 ppm, FIGS. 2C-2H
  quantity and fullness of flowers versus untreated controls: more and fuller flowers than the untreated controls

From patent US12063932B2, “Method of promoting plant growth effects” (Bayer CropScience Aktiengesellschaft, priority 2016, dated 2024)
